Test results published in patent US7321056B2, “Selective peroxisome proliferator activated receptor modulators” (Eli Lilly and Company, priority 2003, dated 2008).
pEC50, pIC50: −log10 of the molar value. Like-named read-outs stand apart in the source and are kept apart here.

Assays:
[1] = target: T1, PPARα (Homo sapiens, UniProt Q07869); assay: Competitive displacement binding assay (SPA), PPARα; conditions: PPARα/RXRα
T1 construct: made in house; host or cells: baculovirus expression system
Method: (§1) Binding assays are performed using scintillation proximity assay (SPA) technology, PPAR receptors, and corresponding radiolabeled ligands. PPARα and PPARγ along with their heterodimeric partner, retinoid X receptor α, are each produced using a baculovirus expression system. Biotinylated oligonucleotides containing PPAR response elements (PPREs) are used to couple the corresponding receptor dimers to yttrium silicate streptavidin-coated SPA beads. PPARγ- and PPARα-specific ligands are labeled with tritium and used in the appropriate corresponding assays. The IC50 values (compound concentration which causes 50% inhibition) for each competing compound are calculated after deduction of non-specific binding (measured in the presence of 10 μM unlabeled ligand). Compounds are evaluated using an 11-point dose response curve with concentrations ranging from 0.169 nM to 10 μM. Reported values represent means from one to seven separate experiments.
T1 sequence (Q07869 whole entry, the tested form may be a part): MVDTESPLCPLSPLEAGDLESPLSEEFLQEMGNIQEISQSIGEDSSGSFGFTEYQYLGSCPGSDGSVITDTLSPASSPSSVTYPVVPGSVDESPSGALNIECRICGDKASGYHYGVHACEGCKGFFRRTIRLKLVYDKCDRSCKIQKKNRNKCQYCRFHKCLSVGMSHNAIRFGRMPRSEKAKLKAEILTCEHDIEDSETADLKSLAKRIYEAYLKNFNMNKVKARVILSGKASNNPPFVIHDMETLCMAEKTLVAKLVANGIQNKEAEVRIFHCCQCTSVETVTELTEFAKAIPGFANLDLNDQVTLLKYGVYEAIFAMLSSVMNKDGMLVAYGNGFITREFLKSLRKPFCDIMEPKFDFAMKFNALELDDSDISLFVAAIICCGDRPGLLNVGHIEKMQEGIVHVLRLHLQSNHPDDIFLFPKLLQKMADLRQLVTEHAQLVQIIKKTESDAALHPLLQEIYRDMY
T1 sequence (P19793 whole entry, further chain, the tested form may be a part): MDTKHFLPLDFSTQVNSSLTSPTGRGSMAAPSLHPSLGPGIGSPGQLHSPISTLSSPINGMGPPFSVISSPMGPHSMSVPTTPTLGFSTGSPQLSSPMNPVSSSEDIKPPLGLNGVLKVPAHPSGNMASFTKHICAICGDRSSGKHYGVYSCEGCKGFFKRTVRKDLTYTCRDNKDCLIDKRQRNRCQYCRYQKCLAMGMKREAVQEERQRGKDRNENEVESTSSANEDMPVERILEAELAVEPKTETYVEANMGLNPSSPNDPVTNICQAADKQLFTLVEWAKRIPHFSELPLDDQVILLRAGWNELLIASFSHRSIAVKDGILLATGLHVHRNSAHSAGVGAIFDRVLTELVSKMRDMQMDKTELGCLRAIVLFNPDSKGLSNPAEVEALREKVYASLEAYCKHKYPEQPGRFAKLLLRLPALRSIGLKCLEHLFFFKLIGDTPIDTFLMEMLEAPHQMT

[2] = target: T2, PPARγ (Homo sapiens, UniProt P37231); assay: Competitive displacement binding assay (SPA), PPARγ; conditions: PPARγ/RXRα
T2 construct: made in house; host or cells: baculovirus expression system
Method: as §1
T2 sequence (P37231 whole entry, the tested form may be a part): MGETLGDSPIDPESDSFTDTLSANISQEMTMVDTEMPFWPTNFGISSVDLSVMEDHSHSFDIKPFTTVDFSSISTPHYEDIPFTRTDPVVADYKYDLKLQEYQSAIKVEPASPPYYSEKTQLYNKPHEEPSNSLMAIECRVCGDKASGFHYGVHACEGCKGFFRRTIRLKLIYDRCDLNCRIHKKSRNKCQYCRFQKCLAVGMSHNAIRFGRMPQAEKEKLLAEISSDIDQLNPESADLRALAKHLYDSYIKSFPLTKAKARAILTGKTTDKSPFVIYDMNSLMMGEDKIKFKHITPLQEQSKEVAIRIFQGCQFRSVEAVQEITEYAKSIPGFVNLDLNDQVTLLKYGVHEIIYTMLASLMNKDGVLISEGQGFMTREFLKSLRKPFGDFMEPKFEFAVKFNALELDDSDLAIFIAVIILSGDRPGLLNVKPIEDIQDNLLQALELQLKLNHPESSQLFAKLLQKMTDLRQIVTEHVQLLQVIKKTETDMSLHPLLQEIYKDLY
T2 sequence (P19793 whole entry, further chain, the tested form may be a part): as the sequence (P19793 whole entry, further chain, the tested form may be a part) above

[3] = target: T3, PPARα (Homo sapiens, UniProt Q07869); assay: Cotransfection (CTF) assay, PPARα GAL4 chimeric system in CV-1 cells; type: cell-based; conditions: for Eff (α): relative to reference molecule
T3 construct: For PPARα, a GAL4 chimeric system is the standard CTF assay performed
T3 sequence (Q07869 200-468 limits assumed): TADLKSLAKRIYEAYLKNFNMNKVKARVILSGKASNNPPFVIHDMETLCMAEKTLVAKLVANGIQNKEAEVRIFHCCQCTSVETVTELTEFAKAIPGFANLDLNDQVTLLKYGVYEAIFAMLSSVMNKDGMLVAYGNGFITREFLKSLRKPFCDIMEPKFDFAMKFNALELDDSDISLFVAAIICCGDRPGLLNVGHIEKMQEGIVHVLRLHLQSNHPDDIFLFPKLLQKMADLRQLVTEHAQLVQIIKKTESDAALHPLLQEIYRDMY
From the text: (§2) PPARγ or PPARα are constitutively expressed using plasmids containing the cytomegalovirus promoter. Reporter plasmids for the PPARγ CTF assays contain PPREs from the following genes: acyl coA oxidase (AOX); apolipoprotein A1 (ApoA1); lipoprotein lipase (LPL); or enoyl-CoA hydratase/3-hydroxyacyl-CoA dehydrogenase (HD) plus the thymidine kinase (TK) promoter upstream of the luciferase reporter cDNA. A PPARγ […] galactosidase (GAL4) chimeric system is also used. For PPARα, a GAL4 chimeric system is the standard CTF assay performed. All assays are done in CV-1 cells. Compounds are tested in full log dilution, from 0.1 nM to 10 μM in duplicate. Percent efficacies are determined relative to reference molecules with the efficacy value reflecting the greatest amount of agonist activity achieved in the CTF assay for each compound. Median effective concentration (EC50) values are determined by computer fit to a concentration-response curve. An EC50 value is not calculated if the efficacy for the compound is <20%. Reported values represent means from two to nine separate experiments.

[4] = target: T4, PPARγ ligand binding domain / CREB-binding protein (CBP) (Homo sapiens, UniProt P37231); assay: Co-factor recruitment assay (mammalian-2-hybrid, CV-1 cells), CBP; type: cell-based; conditions: for CBP Eff: relative to a PPARγ full agonist
T4 construct: expressed in transfected cells; host or cells: CV-1 cells
From the text: (§3) A mammalian-2-hybrid assay system in CTF format is done in CV-1 cells. The following plasmids are used: a mammalian expression vector encoding a fusion of the GAL4 DNA binding domain with the PPARγ ligand binding domain; a mammalian expression vector encoding a fusion of the VP16 transactivation domain with the nuclear receptor interaction domain of the respective co-activators: CREB-binding protein (CBP), peroxisome proliferator-activated receptor gamma coactivator-1 (PGC-1), activating signal cointegrator-2 (ASC-2), thyroid hormone receptor-activated protein complex (TRAP220), and the peptide C33; and a reporter plasmid (multimerized GAL4 binding sites/minimal TK promoter driving a luciferase cDNA). Cells are transfected in batch format and treated with compound (full log dilution from 0.1 nM to 10 μM) or vehicle for 24 hours. Subsequently, the cells are lysed and luciferase activity is measured. Luciferase activity serves as the endpoint for interaction between co-activator and receptor. The data are presented as % efficacy relative to a PPARγ full agonist and represent means from four to six separate experiments.

[5] = target: T5, PPARγ ligand binding domain / PGC-1 (Homo sapiens, UniProt P37231); assay: Co-factor recruitment assay (mammalian-2-hybrid, CV-1 cells), PGC-1; type: cell-based; conditions: for pEC50: read-out: PGC1 EC50; for PGC1 Eff: relative to a PPARγ full agonist
T5 construct: expressed in transfected cells; host or cells: CV-1 cells
T5 sequence (P37231 238-503 limits assumed): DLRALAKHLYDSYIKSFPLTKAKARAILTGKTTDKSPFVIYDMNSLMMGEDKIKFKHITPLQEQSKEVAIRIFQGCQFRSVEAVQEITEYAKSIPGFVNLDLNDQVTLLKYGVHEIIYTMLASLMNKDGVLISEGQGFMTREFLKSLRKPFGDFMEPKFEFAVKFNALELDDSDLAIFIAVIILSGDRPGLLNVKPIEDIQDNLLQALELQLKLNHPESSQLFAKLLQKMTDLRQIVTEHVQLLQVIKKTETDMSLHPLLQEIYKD
T5 sequence (Q9UBK2 1-798 partner): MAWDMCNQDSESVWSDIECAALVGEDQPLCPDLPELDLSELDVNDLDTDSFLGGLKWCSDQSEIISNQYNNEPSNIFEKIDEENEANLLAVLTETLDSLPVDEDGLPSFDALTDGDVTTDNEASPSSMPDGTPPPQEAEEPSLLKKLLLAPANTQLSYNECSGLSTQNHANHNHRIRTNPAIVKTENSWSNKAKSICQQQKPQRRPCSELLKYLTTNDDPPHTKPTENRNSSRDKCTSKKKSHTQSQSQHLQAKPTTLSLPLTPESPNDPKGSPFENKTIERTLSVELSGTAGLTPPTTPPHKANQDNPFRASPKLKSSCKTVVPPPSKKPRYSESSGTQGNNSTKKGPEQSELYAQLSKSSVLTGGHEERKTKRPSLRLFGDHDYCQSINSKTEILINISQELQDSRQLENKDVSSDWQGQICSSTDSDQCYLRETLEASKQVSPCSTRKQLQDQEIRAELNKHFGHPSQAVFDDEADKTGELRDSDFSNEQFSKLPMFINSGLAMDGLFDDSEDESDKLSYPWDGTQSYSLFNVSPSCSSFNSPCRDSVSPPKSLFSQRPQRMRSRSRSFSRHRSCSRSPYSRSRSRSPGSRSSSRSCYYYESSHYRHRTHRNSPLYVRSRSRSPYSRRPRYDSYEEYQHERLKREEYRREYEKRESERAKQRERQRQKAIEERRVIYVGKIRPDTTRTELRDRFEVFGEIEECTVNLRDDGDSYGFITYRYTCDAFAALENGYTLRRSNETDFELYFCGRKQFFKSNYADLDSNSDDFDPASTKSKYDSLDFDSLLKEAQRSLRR
From the text: as §3

[6] = target: T6, PPARγ ligand binding domain / TRAP220 (Homo sapiens, UniProt P37231); assay: Co-factor recruitment assay (mammalian-2-hybrid, CV-1 cells), TRAP220; type: cell-based; conditions: for TRAP220 Eff: relative to a PPARγ full agonist
T6 construct: expressed in transfected cells; host or cells: CV-1 cells
T6 sequence (Q15648 whole entry partner, species assumed, one chain of several, the tested form may be a part): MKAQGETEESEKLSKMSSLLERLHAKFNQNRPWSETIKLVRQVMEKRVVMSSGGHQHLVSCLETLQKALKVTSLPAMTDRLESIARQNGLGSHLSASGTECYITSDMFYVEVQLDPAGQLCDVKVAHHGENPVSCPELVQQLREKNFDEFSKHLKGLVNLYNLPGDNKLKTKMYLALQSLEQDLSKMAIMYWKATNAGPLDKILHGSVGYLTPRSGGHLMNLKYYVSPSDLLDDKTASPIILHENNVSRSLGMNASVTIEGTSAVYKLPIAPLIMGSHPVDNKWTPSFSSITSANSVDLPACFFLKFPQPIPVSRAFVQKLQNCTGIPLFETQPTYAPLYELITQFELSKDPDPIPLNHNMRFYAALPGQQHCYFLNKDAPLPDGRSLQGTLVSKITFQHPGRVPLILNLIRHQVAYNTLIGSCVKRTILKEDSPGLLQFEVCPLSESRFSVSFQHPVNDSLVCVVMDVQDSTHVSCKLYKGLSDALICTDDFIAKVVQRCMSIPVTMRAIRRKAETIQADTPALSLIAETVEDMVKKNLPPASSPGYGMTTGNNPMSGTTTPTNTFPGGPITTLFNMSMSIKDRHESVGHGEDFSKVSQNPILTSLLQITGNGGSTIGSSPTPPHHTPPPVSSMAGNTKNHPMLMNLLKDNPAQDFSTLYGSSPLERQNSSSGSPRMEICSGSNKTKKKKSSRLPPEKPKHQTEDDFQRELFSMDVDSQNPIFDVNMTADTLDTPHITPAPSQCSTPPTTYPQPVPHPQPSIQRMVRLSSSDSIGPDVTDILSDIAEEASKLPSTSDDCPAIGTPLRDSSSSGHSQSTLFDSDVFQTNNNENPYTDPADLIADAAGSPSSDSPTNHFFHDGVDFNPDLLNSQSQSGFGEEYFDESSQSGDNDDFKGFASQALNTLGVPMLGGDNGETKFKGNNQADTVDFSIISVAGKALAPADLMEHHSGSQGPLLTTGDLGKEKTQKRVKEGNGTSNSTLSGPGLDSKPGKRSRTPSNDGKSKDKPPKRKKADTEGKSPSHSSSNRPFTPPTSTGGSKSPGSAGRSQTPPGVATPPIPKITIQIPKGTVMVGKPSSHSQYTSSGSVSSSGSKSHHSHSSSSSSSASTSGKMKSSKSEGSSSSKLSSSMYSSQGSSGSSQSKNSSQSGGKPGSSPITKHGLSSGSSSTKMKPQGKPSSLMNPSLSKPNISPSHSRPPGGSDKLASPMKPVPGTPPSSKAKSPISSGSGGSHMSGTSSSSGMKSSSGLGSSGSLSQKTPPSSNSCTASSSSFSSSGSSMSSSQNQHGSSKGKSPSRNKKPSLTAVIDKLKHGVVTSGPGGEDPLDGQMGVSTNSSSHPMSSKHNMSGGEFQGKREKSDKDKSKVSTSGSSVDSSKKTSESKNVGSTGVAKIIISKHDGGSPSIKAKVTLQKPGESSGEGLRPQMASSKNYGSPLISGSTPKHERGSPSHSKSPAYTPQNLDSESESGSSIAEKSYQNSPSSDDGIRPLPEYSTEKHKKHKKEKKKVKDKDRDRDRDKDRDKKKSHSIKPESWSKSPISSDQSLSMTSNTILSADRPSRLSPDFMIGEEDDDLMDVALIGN
From the text: as §3

[7] = target: T7, PPARγ ligand binding domain / ASC-2 (Homo sapiens, UniProt P37231); assay: Co-factor recruitment assay (mammalian-2-hybrid, CV-1 cells), ASC-2; type: cell-based; conditions: for pEC50: read-out: ASC2 EC50; for ASC2 Eff: relative to a PPARγ full agonist
T7 construct: expressed in transfected cells; host or cells: CV-1 cells
T7 sequence (Q14686 whole entry partner, species assumed, one chain of several, the tested form may be a part): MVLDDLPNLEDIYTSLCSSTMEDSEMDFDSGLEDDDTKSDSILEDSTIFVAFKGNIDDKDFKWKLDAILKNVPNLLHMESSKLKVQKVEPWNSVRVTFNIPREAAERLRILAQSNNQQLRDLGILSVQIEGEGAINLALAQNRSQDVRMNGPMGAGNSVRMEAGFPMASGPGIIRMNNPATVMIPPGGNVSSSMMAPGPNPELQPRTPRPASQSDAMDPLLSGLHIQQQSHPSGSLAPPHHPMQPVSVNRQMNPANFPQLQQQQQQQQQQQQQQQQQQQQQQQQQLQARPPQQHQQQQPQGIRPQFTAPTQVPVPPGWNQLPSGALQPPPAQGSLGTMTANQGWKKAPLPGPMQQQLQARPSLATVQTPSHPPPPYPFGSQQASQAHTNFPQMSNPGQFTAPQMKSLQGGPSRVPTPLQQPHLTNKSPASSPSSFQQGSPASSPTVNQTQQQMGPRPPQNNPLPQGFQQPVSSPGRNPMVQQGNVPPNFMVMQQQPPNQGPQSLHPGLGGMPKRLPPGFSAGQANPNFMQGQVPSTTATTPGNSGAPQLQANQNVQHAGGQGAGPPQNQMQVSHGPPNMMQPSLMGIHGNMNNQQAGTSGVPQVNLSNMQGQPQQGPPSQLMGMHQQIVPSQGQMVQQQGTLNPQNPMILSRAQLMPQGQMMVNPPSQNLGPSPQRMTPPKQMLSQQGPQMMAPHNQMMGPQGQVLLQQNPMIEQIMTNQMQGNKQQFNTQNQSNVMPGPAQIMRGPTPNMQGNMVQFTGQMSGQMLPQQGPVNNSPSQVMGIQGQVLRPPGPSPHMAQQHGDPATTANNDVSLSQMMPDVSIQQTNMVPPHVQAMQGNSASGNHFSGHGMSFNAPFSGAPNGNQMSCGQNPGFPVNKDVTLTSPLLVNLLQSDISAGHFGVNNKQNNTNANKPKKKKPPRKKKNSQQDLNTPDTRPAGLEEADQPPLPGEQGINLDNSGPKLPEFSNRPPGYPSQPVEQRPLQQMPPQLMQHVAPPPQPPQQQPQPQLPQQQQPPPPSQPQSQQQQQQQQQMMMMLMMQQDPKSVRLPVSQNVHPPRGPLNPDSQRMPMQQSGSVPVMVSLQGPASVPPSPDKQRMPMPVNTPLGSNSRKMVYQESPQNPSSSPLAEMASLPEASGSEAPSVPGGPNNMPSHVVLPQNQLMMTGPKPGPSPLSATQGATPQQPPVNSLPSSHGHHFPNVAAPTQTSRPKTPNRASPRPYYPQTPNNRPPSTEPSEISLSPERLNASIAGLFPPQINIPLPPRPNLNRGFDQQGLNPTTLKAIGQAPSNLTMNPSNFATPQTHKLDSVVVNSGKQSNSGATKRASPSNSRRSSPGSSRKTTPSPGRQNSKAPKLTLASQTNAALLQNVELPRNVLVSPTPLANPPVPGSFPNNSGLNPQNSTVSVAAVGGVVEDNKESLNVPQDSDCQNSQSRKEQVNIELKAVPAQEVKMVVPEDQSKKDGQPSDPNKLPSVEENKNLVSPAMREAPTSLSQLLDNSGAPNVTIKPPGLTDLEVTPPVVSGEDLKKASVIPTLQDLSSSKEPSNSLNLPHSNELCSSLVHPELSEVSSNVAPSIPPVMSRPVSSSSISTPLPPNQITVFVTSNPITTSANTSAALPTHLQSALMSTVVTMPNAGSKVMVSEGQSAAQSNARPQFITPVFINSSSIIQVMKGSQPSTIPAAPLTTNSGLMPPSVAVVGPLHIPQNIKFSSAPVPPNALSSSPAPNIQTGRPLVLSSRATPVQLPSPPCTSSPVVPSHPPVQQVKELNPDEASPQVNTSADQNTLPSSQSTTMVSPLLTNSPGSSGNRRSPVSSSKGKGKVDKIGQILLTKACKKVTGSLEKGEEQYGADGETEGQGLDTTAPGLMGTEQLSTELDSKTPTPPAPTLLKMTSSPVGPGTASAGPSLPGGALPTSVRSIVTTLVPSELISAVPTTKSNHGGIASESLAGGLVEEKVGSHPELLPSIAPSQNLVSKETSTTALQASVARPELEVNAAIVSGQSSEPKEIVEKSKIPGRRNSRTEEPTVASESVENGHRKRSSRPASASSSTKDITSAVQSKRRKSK
From the text: as §3

[8] = target: T8, PPARγ ligand binding domain / peptide C33 (Homo sapiens, UniProt P37231); assay: Co-factor recruitment assay (mammalian-2-hybrid, CV-1 cells), peptide C33; type: cell-based; conditions: for C33 Eff: relative to a PPARγ full agonist
T8 construct: expressed in transfected cells; host or cells: CV-1 cells
T8 sequence (P37231 238-503 limits assumed): T5 sequence (P37231 238-503 limits assumed)
From the text: as §3

[9] = tested on: diabetic (db/db) mice; assay: Glucose, triglyceride, hematocrit levels and body weight gain in diabetic mice; conditions: for plasma glucose normalization / plasma triglycerides normalization: db/db mice
Method: Five-week-old male diabetic (db/db) mice (Harlan Laboratories, Indianapolis, Ind.) are housed in plastic cages (n=6/cage; cage size is approximately 10×20×8″ with aspen chip bedding) with free access to water (sipper system—city tap water) and food (Purina 5008). After two weeks of acclimation, animals (7 weeks of age) are bled on day 0 at 1000-1200 h (lights on 0600 h) and assigned to treatment groups (n=5 or 6) based on starting glucose values. Compound or vehicle only treatments are administered daily by oral gavage at approximately 0730 h. Body weights are measured at the beginning (day 0) and end (day 7 or day 14) of the studies. Blood is collected in heparinized tubes from the tail of nonfasted animals two to three hours after the last dose. Hematocrit, glucose and triglycerides levels are then determined. The reported values for glucose and triglyceride levels represent the % of normalization compared to the lean littermate values set at 100% or glucose normalization calculated based on a normal glucose level of 250 mg/dl. Statistical significance between experimental groups is assessed using a two-sided student's t-test.
Plasma glucose and hematocrit levels along with body weight are measured before the study began (day 0) and at the end of the study (day 14).
Plasma glucose, triglyceride, and hematocrit levels along with body weight are measured before the study began (day 0) and at the end of the study (day 7).

[10] = target: T9, PPARγ (Homo sapiens, UniProt P37231); assay: Cotransfection (CTF) / response element assays, PPARγ in CV-1 cells; type: cell-based; design: Gla4 Eff; other: response element assay, GAL4 chimeric system; A PPARγ bacterial galactosidase (GAL4) chimeric system is also used; conditions: response element assay, GAL4 chimeric system; for pEC50: read-out: Gla4 EC50
T9 sequence (P37231 238-505 limits assumed): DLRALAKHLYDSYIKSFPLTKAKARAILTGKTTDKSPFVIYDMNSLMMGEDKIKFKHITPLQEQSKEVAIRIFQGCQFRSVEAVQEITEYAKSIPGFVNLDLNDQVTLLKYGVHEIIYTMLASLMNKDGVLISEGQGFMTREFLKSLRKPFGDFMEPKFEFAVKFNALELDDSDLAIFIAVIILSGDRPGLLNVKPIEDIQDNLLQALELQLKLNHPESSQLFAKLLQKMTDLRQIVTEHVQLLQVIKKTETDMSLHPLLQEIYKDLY
From the text: as §2

[11] = target: T9, PPARγ; assay: as above; type: cell-based; design: rows headed: PPARγ efficacy (% efficacy compared to a PPARγ full agonist set at 100%); PPARγ or PPARα are constitutively expressed using plasmids containing the cytomegalovirus promoter; conditions: CV-1; range over CTF assays of Tables 1 and 3; read-out: PPARγ efficacy (% efficacy compared to a PPARγ full agonist set at 100%)
From the text: as §2

[12] = target: T9, PPARγ; assay: as above; type: cell-based; design: Eff (γ); HD Eff; other: response element assay, HD PPRE reporter; LPL Eff; other: response element assay, LPL PPRE reporter; ApoA1 Eff; other: response element assay, ApoA1; PPARγ or PPARα are constitutively expressed using plasmids containing the cytomegalovirus promoter; conditions: for Eff (γ): Table 1, relative to PPARγ full agonist set at 100%
From the text: as §2

[13] = CTF, Table 1, read-out: EC50 (γ)
[14] = response element assay, HD PPRE reporter
[15] = response element assay, HD PPRE reporter, read-out: HD EC50
[16] = response element assay, LPL PPRE reporter
[17] = response element assay, LPL PPRE reporter, read-out: LPL EC50
[18] = 3 mg/kg/day oral gavage, 7 days
[19] = 10 mg/kg/day oral gavage, 7 days
[20] = 30 mg/kg/day oral gavage, 7 days
[21] = 100 mg/kg/day oral gavage, 7 days

pIC50 [1] | pIC50 [2] | pEC50 [3] | Eff (α) [3] [% efficacy] | pEC50 [4] | CBP Eff [4] [% efficacy] | pEC50 [5] | PGC1 Eff [5] [% efficacy] | TRAP220 Eff [6] [% efficacy] | pEC50 [7] | ASC2 Eff [7] [% efficacy] | pEC50 [8] | C33 Eff [8] [% efficacy] | Gla4 Eff [10] [% efficacy] | pEC50 [10] | Emax [11] [%] | Eff (γ) ([12]; CTF) [% efficacy] | pEC50 [12, 13] | HD Eff [12, 14] [% efficacy] | pEC50 [12, 15] | Compound | also measured
6.95 | 7.28 | 5.88 | 43 | 5.72 | 15 | 5.69 | 24 | 7 | 5.86 | 15 | 5.52 | 13 | 30 | 5.70 | 30 to 86 | 60 | 5.72 | 54 | 5.94 | COc1ccc(CCNC(=O)COc2ccc(C[C@H](OC)C(=O)O)cc2)cc1 [formula III, (2S)-3-(4-{[2-(4-methoxy-phenyl)-ethylcarbamoyl]-methoxy}-phenyl)-2-methoxy-propionic acid] | TRAP220 efficacy [6]: Eff < 20; melting point: 97 to 98 °C; plasma glucose normalization ([9]; 1 mg/kg/day oral gavage, 14 days): 42.7 % normalization; plasma glucose normalization ([9]; 3 mg/kg/day oral gavage, 14 days): 68.3 % normalization; plasma glucose normalization ([9]; 10 mg/kg/day oral gavage, 14 days): 96.1 % normalization; plasma glucose normalization ([9]; 30 mg/kg/day oral gavage, 14 days): 109.3 % normalization; dose-dependent reduction in hematocrit levels, indicative of plasma volume expansion ([9]; db/db mice, 1, 3, 10, 30 mg/kg/day oral gavage, 14 days): not seen; LPL Eff [12, 16]: 86 % efficacy; pEC50 [12, 17]: 5.85
6.44 | 7.52 | 5.74 | 39 | 5.58 | 18 | 5.59 | 24 | 16 | 5.54 | 33 | 5.54 | 43 | 39 | 5.72 | 39 to 80 | 60 | 5.99 | 58 | 5.98 | CCOc1ccc(CCNC(=O)COc2ccc(C[C@H](OC)C(=O)O)cc2)cc1 [formula V, (S)-3-(4-{[2-(4-ethoxy-phenyl)-ethylcarbamoyl]-methoxy}-phenyl)-2-methoxy-propionic acid] | pEC50 [6]: 5.51; plasma glucose normalization [9, 18]: 61.2 % normalization; plasma triglycerides normalization [9, 18]: 108.1 % normalization; plasma glucose normalization [9, 19]: 87.5 % normalization; plasma triglycerides normalization [9, 19]: 108.1 % normalization; plasma glucose normalization [9, 20]: 105.6 % normalization; plasma triglycerides normalization [9, 20]: 121.1 % normalization; plasma glucose normalization [9, 21]: 110.3 % normalization; plasma triglycerides normalization [9, 21]: 130.6 % normalization; ApoA1 Eff ([12]; response element assay, ApoA1 PPRE reporter): 39 % efficacy; pEC50 ([12]; response element assay, ApoA1 PPRE reporter, read-out: ApoA1 EC50): 6.47; LPL Eff [12, 16]: 80 % efficacy; pEC50 [12, 17]: 6.33
